From EP0293500A1, “3-heteroalkyl-2,4.quinzaoline-diones” (AMERICAN CYANAMID COMPANY, priority 1987, dated 1988)
Where a name gives a salt, the structure may show the parent alone.

How the values were obtained:
thromboxane synthetase = target: T1, thromboxane synthetase (Rattus norvegicus, UniProt P49430); experiment: Inhibition of thromboxane (TX) formation (TXB2 radioimmunoassay) in washed rat platelets; format: cell-based, Okamoto-Aoki spontaneously hypertensive rats (SHR); details: percent inhibition of TXB2 formation; drug at 10^-4M; SHR platelet suspension, 10 minutes at 37 C
T1 construct: The platelets were isolated by centrifuging the PRP for 10 minutes at 1060xg; from tissue; host or cells: washed blood platelets from Okamoto-Aoki spontaneously hypertensive rats (SHR)
T1 sequence (P49430 1-533): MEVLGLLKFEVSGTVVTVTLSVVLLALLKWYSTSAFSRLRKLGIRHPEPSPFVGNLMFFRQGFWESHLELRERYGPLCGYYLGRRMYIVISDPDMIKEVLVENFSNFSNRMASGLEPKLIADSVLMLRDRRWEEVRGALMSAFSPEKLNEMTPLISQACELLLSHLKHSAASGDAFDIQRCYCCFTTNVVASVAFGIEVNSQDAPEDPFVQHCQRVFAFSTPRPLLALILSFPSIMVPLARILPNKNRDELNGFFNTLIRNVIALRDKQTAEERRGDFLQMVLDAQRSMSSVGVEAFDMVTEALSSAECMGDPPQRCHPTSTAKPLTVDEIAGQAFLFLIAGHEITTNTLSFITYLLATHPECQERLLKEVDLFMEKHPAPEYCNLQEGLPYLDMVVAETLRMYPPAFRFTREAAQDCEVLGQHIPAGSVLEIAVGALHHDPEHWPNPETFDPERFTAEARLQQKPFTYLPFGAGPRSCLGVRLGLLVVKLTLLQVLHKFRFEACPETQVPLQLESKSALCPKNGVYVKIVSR
From the text: The platelet rich plasma (PRP) was separated. […] The inhibition of thromboxane (TX) formation was studied by determing the concentration of thromboxane […] (TXB2), the stable hydrolysis product of TXA2.

[1] = test system: spontaneously hypertensive rats of the Okamoto strain; experiment: Hypotensive activity in spontaneously hypertensive rats (method of Chan and Poorvin); format: in vivo; details: male SHR, average MABP 160±1.5 mm of mercury; gavage, 100 mg/kg or less, second identical dose 24 hours later; MABP at 28 hours after the initial dose; number of rats in brackets
Protocol: The novel compounds of the present invention are also active hypotensive agents and were tested for hypotensive activity by the method of P. S. Chan and b. Poorvin, Clinical and Experimental Hypertension, 1 (6), 817-830 (1979). Male, 16 week old, spontaneously hypertensive rats of the Okamoto strain, from Taconic Farms, Germantown, New York having an average mean arterial blood pressure of 160±1.5 mm of mercury were used in the test. […] A second identical dose of the test compound, without sodium chloride loading is given 24 hours later. At 28 hours after the initial dose, the mean arterial blood pressure (MABP) is measured by the method of Chan and Poorvin vide supra. The procedure is repeated in a second and third rat when necessary. The results of this test on representative compounds of the present invention appear in Table II below.

Row | inhibition at 100 µM (thromboxane synthetase) | SMILES | MABP/mm Hg (no. of rats) [1]
1 | 51% | CC(CCn1c(=O)[nH]c2cc(Cl)ccc2c1=O)n1ccnc1 (centres unmarked) [Example 41, 7-Chloro-3-[3-(1H-imidazol-1-yl)butyl]-2,4(1H,3H)-quinazolinedione] | 128(2) mm Hg
2 | 75% | CC(Cn1ccnc1)Cn1c(=O)[nH]c2cc(Cl)ccc2c1=O (centres unmarked) [Example 42, 7-Chloro-3-[3-(1H-imidazol-1-yl)-2-methylpropy]-2,4(1H,3H)-quinazolinedione] | 121(2) mm Hg
3 | 62% | O=c1[nH]c2c(Cl)cccc2c(=O)n1CCCCn1ccnc1 [Example 43, 8-Chloro-3-[4-(1H-imidazol-1-yl)butyl]-2,4(1H,3H)-quinazolinedione] | 85(2) mm Hg
4 | 71% | CC(CCn1c(=O)[nH]c2c(Cl)cccc2c1=O)n1ccnc1 (centres unmarked) [Example 44, 8-Chloro-3-[3-(1H-imidazol-1-yl)butyl]-2,4(1H,3H)-quinazolinedione] | 112(2) mm Hg
5 | 68% | O=c1c2ccccc2nnn1CCCCn1ccnc1 [Example 75, 3-[4-(1 H-Imidazol-1-yl)butyl]-1,2,3-benzotriazin-4(3H)-one] | 114(2) mm Hg
6 | 74% | O=c1c2cc(Cl)ccc2nnn1CCCn1ccnc1 [Example 76, 6-Chloro-3-[3-(1H-imidazol-1-yl)-propyl]-1,2,3-benzotriazin-4(3H)-one] | 127(3) mm Hg
7 | 96% | Cl.O=c1c2cc(Br)ccc2nnn1CCCCn1ccnc1 [Example 82, 6-Bromo-3-[4-(1H-imidazol-1-yl)-butyl]-1,2,3-benzotriazin-4(3H)-one, monohydrochloride] | 115(2) mm Hg
8 | 95% | Cc1ccc2nnn(CCCCn3ccnc3)c(=O)c2c1 [Example 84, 3-[4-(1H-Imidazol-1-yl)butyl]-6-methyl-1,2,3-benzotriazin-4(3H)-one] | 106(2) mm Hg
9 | 93% | Cc1ccc2c(=O)n(CCCCn3ccnc3)nnc2c1C.Cl [Example 86, 3-[4-(1H-Imidazol-1-yl)butyl]-7,8-dimethyl-1,2,3-benzotriazin-4(3H)-one, monohydrochloride] | 121(2) mm Hg
10 | 95% | CC(Cn1ccnc1)Cn1nnc2ccc([N+](=O)[O-])cc2c1=O.O (centres unmarked) [Example 87, 3-[3-(1H-Imidazol-1-yl)-2-methyl-propyl]-6-nitro-1,2,3-benzo-triazin-4(3H)-one, hydrate] | 114(2) mm Hg
11 | 82% | O=c1c2cc(Cl)ccc2nnn1CCCCCn1ccnc1 [Example 99, 6-Chloro-3-[5-(1H-imidazol-1-yl)pentyl]-1,2,3-benzotriazin-4(3H)-one] | 117(2) mm Hg
12 | 73% | O=c1c2cc(Cl)ccc2nnn1CCCCCCn1ccnc1 [Example 100, 6-Chloro-3-[6-(1H-imidazol-1-yl)hexyl]-1,2,3-benzotriazin-4(3H)-one] | 109(2) mm Hg
13 | 67% | O=c1c2ccccc2nnn1CCCCCn1ccnc1 [Example 101, 3-[5-(1H-Imida-zol-1-yl)pentyl]-1,2,3-benzotria-zin-4(3H)-one, monohydrochloride] | 113(2) mm Hg
14 | 96% | O=c1c2ccccc2nnn1CCCCCCn1ccnc1 [Example 102, 3-[6-(1H-Imida-zol-1-yl)hexyl]-1,2,3-benzotria-zin-4(3H)-one, monohydrochloride] | 87(2) mm Hg
15 | 51% | O=c1c2ccccc2ncn1CCCn1ccnc1 [Example 122, 3-[3-(1 H-Imidazol-1-yl)propyl]-4(3H)-quinazolinone] | 139(2) mm Hg
16 | 83% | O=c1c2ccccc2ncn1CCCCn1ccnc1 [Example 123, 3-[4-(1H-Imidazol-1-yl)butyl]-4(3H)-quinazolinone, dihydro-chloride] | 117(3) mm Hg
17 | 99% | O=c1c2cc(Cl)ccc2ncn1CCCCn1ccnc1 [Example 124, 6-Chloro-3-[4-(1H-imidazol-1-yl)-butyl]-4(3H)-quinazolinone, dihydro-chloride] | 106(2) mm Hg
18 | 99% | O=c1c2cc(Br)ccc2ncn1CCCCn1ccnc1 [Example 125, 6-Bromo-3-[4-(1H-imidazol-1-yl)-butyl]-4(3H)-quinazolinone, dihydro-chloride] | 121(2) mm Hg
19 | 99% | O=c1c2cc(Br)ccc2ncn1CCCn1ccnc1 [Example 126, 6-Bromo-3-[3-(1H-imidazol-1-yl)-propyl]-4(3H)-quinazolinone] | 122(2) mm Hg
20 | 87% | Cc1ccc2ncn(CCC(C)n3ccnc3)c(=O)c2c1 (centres unmarked) [Example 127, 3-[3-(1H-Imidazol-1-yl)butyl]-6-methyl-4(3H)-quinazolinone] | 133(4) mm Hg
21 | 100% | CC(Cn1ccnc1)Cn1cnc2ccccc2c1=O.Cl.Cl (centres unmarked) [Example 134, 3-[3-(1H-Imidazol-1-yl)-2-methylpropyl]-4(3H)-quinazolinone, dihydrochloride] | 121(2) mm Hg
22 | 75% | O=c1c2cc(Cl)ccc2ncn1CCCn1ccnc1 [Example 138, 6-Chloro-[3-(1H-imidazol-1-yl)propyl]-4(3H)-quinazolinone] | 100(2) mm Hg
23 | 89% | Cc1cn(CCCn2cnc3ccc(Cl)cc3c2=O)cn1 [Example 139, 6-Chloro-3-[3-(4-methyl-1H-imidazol-1-yl)propyl]-4(3H)-quinazolinone] | 123(3) mm Hg
24 | 100% | CC(CCn1cnc2ccc(Cl)cc2c1=O)n1ccnc1 (centres unmarked) [Example 140, 6-Chloro-3-[3-(1H-Imidazol-1-yl)butyl]-4(3H)-quinazolinone] | 114(2) mm Hg
25 | 70% | O=c1c2cc(Cl)ccc2ncn1CCCCCCCCn1ccnc1 [Example 143, 6-Chloro-3-[8-(1H-imidazol-1-yl)octyl]-4(3H)-quinazolinone] | 118(2) mm Hg
